Test results reported in ChEMBL document CHEMBL1201862, “PubChem BioAssay data set” (2004).
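Where inhibition never reached the appropriate level, the endpoint shown equals the highest concentration tested. Otherwise, values were interpolated linearly from a five-concentration, 48-hour dose response in 96-well plates. GI50 = concentration required for 50% inhibition of growth.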 Calls of active or inactive are those of the source. Rule as the data show it: active = GI50 up to about 1.1 µM and inactive = higher.

Assays:
Assay in all cases: NCI tumour cell line growth inhibition, 48 h
EKVX = tested on: EKVX
DMS-273 = tested on: DMS-273
Malme-3M = tested on: Malme-3M
K562 = tested on: K562
MDA-MB-231 = tested on: MDA-MB-231
OVCAR-5 = tested on: OVCAR-5
786-0 = tested on: 786-0
A549 = tested on: A549
RXF 393 = tested on: RXF 393
NCI-H226 = tested on: NCI-H226
KM-20L2 = tested on: KM-20L2
SF-295 = tested on: SF-295
PC-3 = tested on: PC-3
SK-MEL-2 = tested on: SK-MEL-2
SK-MEL-5 = tested on: SK-MEL-5
KM12 = tested on: KM12
HCT-116 = tested on: HCT-116
NCI-H522 = tested on: NCI-H522
NCI-H460 = tested on: NCI-H460
UACC-62 = tested on: UACC-62
MDA-N = tested on: MDA-N
RPMI-8226 = tested on: RPMI-8226
SN12C = tested on: SN12C
HOP-62 = tested on: HOP-62
OVCAR-3 = tested on: OVCAR-3
HL-60 = tested on: HL-60
MDA-MB-435 = tested on: MDA-MB-435
SW-620 = tested on: SW-620
LXFL 529 = tested on: LXFL 529
SNB-78 = tested on: SNB-78
SNB-19 = tested on: SNB-19
HT-29 = tested on: HT-29
NCI-H23 = tested on: NCI-H23
OVCAR-8 = tested on: OVCAR-8
MOLT-4 = tested on: MOLT-4
CCRF-CEM = tested on: CCRF-CEM
SK-MEL-28 = tested on: SK-MEL-28
M14 = tested on: M14
UO-31 = tested on: UO-31
HOP-92 = tested on: HOP-92
NCI/ADR-RES = tested on: NCI/ADR-RES
U-251 = tested on: U-251
HOP-18 = tested on: HOP-18
RXF 631 = tested on: RXF 631
SK-OV-3 = tested on: SK-OV-3
COLO 205 = tested on: COLO 205
SF-539 = tested on: SF-539
DU-145 = tested on: DU-145
MCF7 = tested on: MCF7
DLD-1 = tested on: DLD-1
UACC-257 = tested on: UACC-257
XF498 = tested on: XF498
SF-268 = tested on: SF-268
TK-10 = tested on: TK-10
HCT-15 = tested on: HCT-15
CAKI-1 = tested on: CAKI-1
IGROV-1 = tested on: IGROV-1
DMS-114 = tested on: DMS-114
OVCAR-4 = tested on: OVCAR-4
HCC 2998 = tested on: HCC 2998
SNB-75 = tested on: SNB-75
ACHN = tested on: ACHN
A498 = tested on: A498
M19-MEL = tested on: M19-MEL

**Q.** What does the source list for `COC1=C2C[C@@H](C)C[C@@H](OC)[C@@H](O)[C@H](C)/C=C(\C)[C@@H](OC(N)=O)[C@H](OC)/C=C\C=C(/C)C(=O)NC(=CC1=O)C2=O`?
**A.** GI50 (EKVX): 6.56 µM (inactive); GI50 (DMS-273): 0.117 µM (active); GI50 (Malme-3M): 0.044 µM (active); GI50 (K562): 0.0115 µM (active); GI50 (MDA-MB-231): 0.0421 µM (active); GI50 (OVCAR-5): 6.87 µM (inactive); GI50 (786-0): 0.0762 µM (active); GI50 (A549): 5.78 µM (inactive); GI50 (RXF 393): 0.0818 µM (active); GI50 (NCI-H226): 3.56 µM (inactive); GI50 (KM-20L2): 0.0266 µM (active); GI50 (SF-295): 9.38 µM (inactive); GI50 (PC-3): 0.122 µM (active); GI50 (SK-MEL-2): 0.396 µM (active); GI50 (SK-MEL-5): 0.678 µM (active); GI50 (KM12): 0.455 µM (active); GI50 (HCT-116): 0.0419 µM (active); GI50 (NCI-H522): 0.036 µM (active); GI50 (NCI-H460): 1.49 µM (inactive); GI50 (UACC-62): 0.122 µM (active); GI50 (MDA-N): 0.0216 µM (active); GI50 (RPMI-8226): 0.138 µM (active); GI50 (SN12C): 0.0405 µM (active); GI50 (HOP-62): 3.38 µM (inactive); GI50 (OVCAR-3): 0.213 µM (active); GI50 (HL-60): 0.0132 µM (active); GI50 (MDA-MB-435): 0.0309 µM (active); GI50 (SW-620): 0.0127 µM (active); GI50 (LXFL 529): 0.0267 µM (active); GI50 (SNB-78): 1.04 µM (active); GI50 (SNB-19): 10.2 µM (inactive); GI50 (HT-29): 0.0143 µM (active); GI50 (NCI-H23): 0.0309 µM (active); GI50 (OVCAR-8): 0.0614 µM (active); GI50 (MOLT-4): 0.0199 µM (active); GI50 (CCRF-CEM): 0.0282 µM (active); GI50 (SK-MEL-28): 0.113 µM (active); GI50 (M14): 0.106 µM (active); GI50 (UO-31): 0.189 µM (active); GI50 (HOP-92): 0.112 µM (active); GI50 (NCI/ADR-RES): 10.1 µM (inactive); GI50 (U-251): 2.93 µM (inactive); GI50 (HOP-18): 0.159 µM (active); GI50 (RXF 631): 0.71 µM (active); GI50 (SK-OV-3): 1.04 µM (active); GI50 (COLO 205): 0.0116 µM (active); GI50 (SF-539): 0.132 µM (active); GI50 (DU-145): 0.106 µM (active); GI50 (MCF7): 0.0198 µM (active); GI50 (DLD-1): 0.0679 µM (active); GI50 (UACC-257): 0.0769 µM (active); GI50 (XF498): 0.0787 µM (active); GI50 (SF-268): 1.01 µM (active); GI50 (TK-10): 0.118 µM (active); GI50 (HCT-15): 0.265 µM; GI50 (CAKI-1): 1.77 µM (inactive); GI50 (IGROV-1): 0.29 µM (active)

**Q.** Which GI50 (EKVX) does the source give for `N#[N+]c1ccccc1Sc1ccc(Cl)cc1` here?
**A.** Its GI50 is > 100 µM (inactive).

**Q.** What about the GI50 (DMS-273) of the same compound?
**A.** The GI50 was > 100 µM (inactive).

**Q.** And the GI50 (Malme-3M)?
**A.** The GI50 was > 100 µM (inactive).

**Q.** What about the GI50 (K562) of the same compound?
**A.** The GI50 was 75 µM (inactive).

**Q.** What about the GI50 (OVCAR-5) of the same compound?
**A.** The GI50 was > 100 µM (inactive).

**Q.** And the GI50 (786-0)?
**A.** The GI50 was > 100 µM (inactive).

**Q.** What about the GI50 (A549) of the same compound?
**A.** The GI50 was > 100 µM (inactive).

**Q.** And the GI50 (RXF 393)?
**A.** Its GI50 is 32.2 µM (inactive).

**Q.** And the GI50 (DMS-114)?
**A.** The GI50 was 48.1 µM (inactive).

**Q.** And the GI50 (NCI-H226)?
**A.** The GI50 was 76.9 µM (inactive).

**Q.** And the GI50 (KM-20L2)?
**A.** Its GI50 is > 100 µM (inactive).

**Q.** What about the GI50 (SF-295) of the same compound?
**A.** The GI50 was > 100 µM (inactive).

**Q.** And the GI50 (SK-MEL-2)?
**A.** Its GI50 is > 100 µM (inactive).

**Q.** And the GI50 (SK-MEL-5)?
**A.** The GI50 was 61.2 µM (inactive).

**Q.** And the GI50 (KM12)?
**A.** Its GI50 is > 100 µM (inactive).

**Q.** What about the GI50 (HCT-116) of the same compound?
**A.** The GI50 was 74.3 µM (inactive).

**Q.** And the GI50 (NCI-H460)?
**A.** The GI50 was > 100 µM (inactive).

**Q.** What about the GI50 (OVCAR-4) of the same compound?
**A.** The GI50 was > 100 µM (inactive).

**Q.** What about the GI50 (UACC-62) of the same compound?
**A.** Its GI50 is > 100 µM (inactive).

**Q.** And the GI50 (RPMI-8226)?
**A.** Its GI50 is 52.4 µM (inactive).

**Q.** And the GI50 (HOP-62)?
**A.** The GI50 was 40.4 µM (inactive).

**Q.** And the GI50 (OVCAR-3)?
**A.** Its GI50 is > 100 µM (inactive).

**Q.** And the GI50 (HL-60)?
**A.** Its GI50 is 94 µM (inactive).

**Q.** And the GI50 (SW-620)?
**A.** Its GI50 is > 100 µM (inactive).

**Q.** And the GI50 (HCC 2998)?
**A.** The GI50 was > 100 µM (inactive).

**Q.** And the GI50 (LXFL 529)?
**A.** Its GI50 is > 100 µM (inactive).

**Q.** What about the GI50 (SNB-78) of the same compound?
**A.** The GI50 was > 100 µM (inactive).

**Q.** What about the GI50 (HT-29) of the same compound?
**A.** Its GI50 is > 100 µM (inactive).

**Q.** What about the GI50 (NCI-H23) of the same compound?
**A.** Its GI50 is 47.8 µM (inactive).

**Q.** And the GI50 (OVCAR-8)?
**A.** Its GI50 is > 100 µM (inactive).

**Q.** And the GI50 (MOLT-4)?
**A.** Its GI50 is 64.7 µM (inactive).

**Q.** What about the GI50 (CCRF-CEM) of the same compound?
**A.** The GI50 was 89.9 µM (inactive).

**Q.** What about the GI50 (SK-MEL-28) of the same compound?
**A.** Its GI50 is > 100 µM (inactive).

**Q.** What about the GI50 (M14) of the same compound?
**A.** The GI50 was > 100 µM (inactive).

**Q.** What about the GI50 (UO-31) of the same compound?
**A.** Its GI50 is > 100 µM (inactive).

**Q.** And the GI50 (U-251)?
**A.** The GI50 was > 100 µM (inactive).

**Q.** What about the GI50 (RXF 631) of the same compound?
**A.** The GI50 was 67.9 µM (inactive).

**Q.** What about the GI50 (SK-OV-3) of the same compound?
**A.** The GI50 was > 100 µM (inactive).

**Q.** And the GI50 (SNB-75)?
**A.** The GI50 was > 100 µM (inactive).

**Q.** What about the GI50 (SF-539) of the same compound?
**A.** Its GI50 is > 100 µM (inactive).

**Q.** What about the GI50 (ACHN) of the same compound?
**A.** Its GI50 is > 100 µM (inactive).

**Q.** What about the GI50 (DLD-1) of the same compound?
**A.** The GI50 was > 100 µM (inactive).

**Q.** And the GI50 (UACC-257)?
**A.** The GI50 was > 100 µM (inactive).

**Q.** What about the GI50 (A498) of the same compound?
**A.** The GI50 was > 100 µM (inactive).

**Q.** What about the GI50 (XF498) of the same compound?
**A.** The GI50 was > 100 µM (inactive).

**Q.** What about the GI50 (TK-10) of the same compound?
**A.** The GI50 was > 100 µM (inactive).

**Q.** And the GI50 (M19-MEL)?
**A.** The GI50 was > 100 µM (inactive).

**Q.** What about the GI50 (HCT-15) of the same compound?
**A.** Its GI50 is > 100 µM.

**Q.** What about the GI50 (CAKI-1) of the same compound?
**A.** The GI50 was > 100 µM (inactive).

**Q.** And the GI50 (IGROV-1)?
**A.** Its GI50 is 82.8 µM (inactive).
